Source: PubChem BioAssay AID1845199 (Molecular Pharmacology Branch, DTP, NCI, 2023)
Where “and” joins values, the source holds several entries; their conditions need not be identical. Equal values may be shown once.

Tested on: 556581-035-R-J1 tumor spheroid viability, % test/control
Test: Anticancer human tumor 556581-035-R-J1 patient-derived ovarian carcinoma cell line growth inhibition
Conditions: spheroids with HUVEC and MSC; for viability, T/C: stronger effect = lower value
From the text: Multicellular complex tumor spheroid response to DNA repair inhibitors in combination with DNA-damaging drugs
This study explores the anticancer activities of DNA-damaging drugs and inhibitors of DNA damage repair, both as single agents and in combinations. Complex tumor spheroids comprised of malignant cells, endothelial cells and mesenchymal stem cells served as an in vitro model for human solid tumors. This model system incorporates physiologically relevant features and patient-derived or established malignant cell lines with clinically relevant genetic alterations from many tumor types. Twenty-six patient-derived or established malignant cell lines were evaluated representing sarcoma, melanoma, small cell lung cancer (SCLC), non-small cell lung cancer (NSCLC), as well as bladder, ovarian and pancreatic cancers. The concentration ranges selected for each drug and investigational agent were based upon clinically achievable concentrations if the clinical Cmax of the agent was known.
Compounds. The drugs and compounds olaparib (NSC753686), talazoparib (NSC767125), berzosertib (NSC777718), elimusertib (NSC800525), nedisertib (NSC802822), VX-984 (NSC792969), AZD-1390 (NSC803789), temozolomide (NSC362856), topotecan (NSC609699), trabectedin (NSC813783), staurosporine (NSC755774), and gemcitabine (NSC613327) were obtained from the National Cancer Institute (NCI) Developmental Therapeutics Program Chemical Repository. The FDA-approved anticancer drug set is available from the Developmental Therapeutics Program at https://dtp.cancer.gov/organization/dscb/obtaining/available_plates.htm. […] The stock solutions were prepared in dimethyl sulfoxide (DMSO, Sigma-Aldrich, St. Louis, MO, cat. D2650) at 400-fold the tested concentration and stored at -70 degrees C. Prior to their use, the stock solutions were diluted in fresh medium and the final DMSO concentration in the assay was 0.25% (v/v). All drugs and investigational agents were tested over a range starting from a high concentration at or near the clinical Cmax and decreasing in half-log increments. If the clinical Cmax for an agent had not been determined, the highest concentration tested was 10 microM.
Cell Lines. The patient-derived cancer cell (PDC) lines: 156681-154-R-J1-PDC, 283228-195-R-J1-PDC, 287954-098-R-J1-PDC, 292921-168-R-J2-PDC, 349418-098-R-PDC, 425362-245-T-J1-PDC, 556581-035-R-J1-PDC, and BL0293-F563-PDC were received from the NCI Patient-Derived Models Repository (PDMR, https://pdmr.cancer.gov). The established cell lines HS-SY-2 (RRID:CVCL_8719), MPNST, and SYO-1 (RRID:CVCL_7146) were obtained from the Sloan Kettering Institute. The alveolar soft parts sarcoma cell line ASPS-1 (RRID:CVCL_S738) was established at the NCI and grown from internal seed stocks. The following established cell lines were purchased from the American Type Culture Collection (ATCC, Manassas, VA): G-401 (ATCC, cat. CRL-1441, RRID:CVCL_0270), SW982 (ATCC, cat. HTB-93, RRID:CVCL_1734), VA-ES-BJ (ATCC, cat. CRL-2138, RRID:CVCL_1785), NCI-H719 (ATCC, cat. CRL-5837, RRID:CVCL_1582), NCI-H196 (ATCC, cat. CRL-5823, RRID:CVCL_1509), NCI-H841 (ATCC, cat. CRL-5845, RRID:CVCL_1595), NCI-H1618 (ATCC, cat. CRL-5879, RRID:CVCL_1480), NCI-H1876 (ATCC, cat. CRL-5902, RRID:CVCL_1503), DMS 114 (ATCC, cat. CRL-2066; RRID:CVCL_1174), NCI-H211 (ATCC, cat. CRL-5824; RRID:CVCL_1529), and SW 1271 (ATCC, cat. CRL-2177, RRID:CVCL_1716). The small cell lung cancer cell line COR-L88 was purchased from Sigma-Aldrich (cat. 92031917-1VL, RRID:CVCL_1141). The non-small cell lung cancer cell lines NCI-H226 (RRID:CVCL_1544) and NCI-H322M (RRID:CVCL_1557) were established at the NCI and grown from internal seed stocks. Pooled donor human umbilical vein endothelial cells (HUVEC, Lonza, cat. CC-2519) and human mesenchymal stem cells (hMSC, Lonza, cat. PT-2501) were purchased from Lonza (Walkersville, MD).
Cell Culture. All cells were maintained in an incubator at 37 degrees C and 5% CO2 with 95% humidity. […]

[1] = curve of first compound, second compound 30 pM
[2] = curve of first compound, second compound 94.9 pM
[3] = curve of first compound, second compound 0.0003 µM
[4] = curve of first compound, second compound 0.000949 µM
[5] = curve of first compound, second compound 0.003 µM
[6] = second compound 30 pM, first compound 0.0316 µM
[7] = second compound 30 pM, first compound 0.1 µM
[8] = second compound 30 pM, first compound 0.316 µM
[9] = second compound 30 pM, first compound 1 µM
[10] = second compound 30 pM, first compound 3.16 µM
[11] = second compound 30 pM, first compound 10 µM
[12] = second compound 94.9 pM, first compound 0.0316 µM
[13] = second compound 94.9 pM, first compound 0.1 µM
[14] = second compound 94.9 pM, first compound 0.316 µM
[15] = second compound 94.9 pM, first compound 1 µM
[16] = second compound 94.9 pM, first compound 3.16 µM
[17] = second compound 94.9 pM, first compound 10 µM
[18] = second compound 0.0003 µM, first compound 0.0316 µM
[19] = second compound 0.0003 µM, first compound 0.1 µM
[20] = second compound 0.0003 µM, first compound 0.316 µM
[21] = second compound 0.0003 µM, first compound 1 µM
[22] = second compound 0.0003 µM, first compound 3.16 µM
[23] = second compound 0.0003 µM, first compound 10 µM
[24] = second compound 0.000949 µM, first compound 0.0316 µM
[25] = second compound 0.000949 µM, first compound 0.1 µM
[26] = second compound 0.000949 µM, first compound 0.316 µM
[27] = second compound 0.000949 µM, first compound 1 µM
[28] = second compound 0.000949 µM, first compound 3.16 µM
[29] = second compound 0.000949 µM, first compound 10 µM
[30] = second compound 0.003 µM, first compound 0.0316 µM
[31] = second compound 0.003 µM, first compound 0.1 µM
[32] = second compound 0.003 µM, first compound 0.316 µM
[33] = second compound 0.003 µM, first compound 1 µM
[34] = second compound 0.003 µM, first compound 3.16 µM
[35] = second compound 0.003 µM, first compound 10 µM
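Note: spheroids exposed to compounds for 7 days before viability read.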

## COc1ccc([C@@H](O)c2cc(-c3ncnc4cc(N5CCOCC5)ccc34)c(F)cc2Cl)nn1 + COc1cc2c(cc1O)CCNC21CSC2c3c(OC(C)=O)c(C)c4c(c3C(COC1=O)N1C(O)C3Cc5cc(C)c(OC)c(O)c5C(C21)N3C)OCO4
[1]
  IC50: 1.77 µM
[2]
  IC50: 1.96 µM
[3]
  IC50: 2.06 µM
[4]
  IC50: < 0.0316 µM
[5]
  IC50: < 0.0316 µM
[6]
  viability, T/C: 97.4%
[7]
  viability, T/C: 102%
[8]
  viability, T/C: 88.2%
[9]
  viability, T/C: 60.5%
[10]
  viability, T/C: 40.1%
[11]
  viability, T/C: 32.8%
[12]
  viability, T/C: 104%
[13]
  viability, T/C: 102%
[14]
  viability, T/C: 90.5%
[15]
  viability, T/C: 61.6%
[16]
  viability, T/C: 42.7%
[17]
  viability, T/C: 32.3%
[18]
  viability, T/C: 99.5%
[19]
  viability, T/C: 104%
[20]
  viability, T/C: 86.8%
[21]
  viability, T/C: 67.8%
[22]
  viability, T/C: 40%
[23]
  viability, T/C: 22.4%
[24]
  viability, T/C: 42.1%
[25]
  viability, T/C: 36.5%
[26]
  viability, T/C: 12.3%
[27]
  viability, T/C: 0.69%
[28]
  viability, T/C: 0.37%
[29]
  viability, T/C: 1.03%
[30]
  viability, T/C: 0.59%
[31]
  viability, T/C: 0.87%
[32]
  viability, T/C: 0.65%
[33]
  viability, T/C: 0.7%
[34]
  viability, T/C: 0.82%
[35]
  viability, T/C: 0.98%

## Cc1cc(C)c(CNC(=O)c2cc(-c3ccc(CN4CCOCC4)cc3)cc3c2cnn3C2CCCC2)c(=O)[nH]1 + COc1cc2c(cc1O)CCNC21CSC2c3c(OC(C)=O)c(C)c4c(c3C(COC1=O)N1C(O)C3Cc5cc(C)c(OC)c(O)c5C(C21)N3C)OCO4
[1]
  IC50: > 10 µM
[2]
  IC50: > 10 µM
[3]
  IC50: > 10 µM
[4]
  IC50: < 0.0316 µM
[5]
  IC50: < 0.0316 µM
[6]
  viability, T/C: 100%
[7]
  viability, T/C: 108%
[8]
  viability, T/C: 105%
[9]
  viability, T/C: 117%
[10]
  viability, T/C: 112%
[11]
  viability, T/C: 97.5%
[12]
  viability, T/C: 109%
[13]
  viability, T/C: 108%
[14]
  viability, T/C: 110%
[15]
  viability, T/C: 109%
[16]
  viability, T/C: 110%
[17]
  viability, T/C: 88.3%
[18]
  viability, T/C: 99.9%
[19]
  viability, T/C: 100%
[20]
  viability, T/C: 103%
[21]
  viability, T/C: 103%
[22]
  viability, T/C: 98.4%
[23]
  viability, T/C: 88.3%
[24]
  viability, T/C: 45.2%
[25]
  viability, T/C: 43.5%
[26]
  viability, T/C: 46%
[27]
  viability, T/C: 30.7%
[28]
  viability, T/C: 24.5%
[29]
  viability, T/C: 11.6%
[30]
  viability, T/C: 1.01%
[31]
  viability, T/C: 0.92%
[32]
  viability, T/C: 0.9%
[33]
  viability, T/C: 0.75%
[34]
  viability, T/C: 0.82%
[35]
  viability, T/C: 1.15%

## O=C(c1cc(Cc2n[nH]c(=O)c3ccccc23)ccc1F)N1CCN(C(=O)C2CC2)CC1
Compound 0.0949 µM
  viability, T/C: 100% and 105% and 95.8%
Compound 0.3 µM
  viability, T/C: 97.9% and 107% and 110%
Compound 0.949 µM
  viability, T/C: 98.4% and 102% and 100%
Compound 3 µM
  viability, T/C: 90% and 103% and 96.5%
Compound 9.49 µM
  viability, T/C: 75.5% and 90.5% and 81.3%
Compound 30 µM
  viability, T/C: 64.7% and 72.9% and 67.7%
Curve of compound
  IC50: > 30 µM
